Structures can show the parent of a compound that is named as a salt.
Tests used:
[1] = tested on: Primary adult CD34+ human hematopoietic stem cells (HSCs); assay: % CD34+ assay: HSC expansion screen, dose response; type: cell-based; conditions: for EC50: Homo sapiens, Hematopoietic stem cell, dose response 1 nM to 10 μM, total number and/or percent of CD34+ cells
Protocol: Primary adult CD34^+ human hematopoietic stem cells (HSCs) are cultured and screened to identify compounds of the invention that facilitate HSC expansion. The cells are analyzed for the presence of the desired phenotype (CD34 expression). Compounds of the invention promote HSC expansion in a dose dependent manner.
Culture Medium: StemSpan SFEM medium is serum-free medium (StemCell Technologies, Vancouver, BC) supplemented with the following human recombinant cytokines: thrombopoietin, interleukin-6, Flt-3 ligand, and stem cell factor (all from R&D Systems, Minneapolis, Minn.), each at a final concentration of 50 ng/mL, with vehicle (DMSO) or a compound of the invention.
Human Cell Culture: Fresh human leukophoresed G-CSF mobilized peripheral blood from normal donors, CD34^+ cells from adult bone marrow and cryopreserved human cord blood CD34^+ cells are purchased from AllCells (Berkeley, Calif.). Human CD34^+ cells are enriched from leukophoresed G-CSF mobilized peripheral blood using magnetic cell sorting (MACS, Direct CD34 Progenitor Cell Isolation Kit, Miltenyi Biotec, Bergisch Gladbach, Germany) and cryopreserved. CD34^+ cell purity, checked by flow Cytometry, is higher than 90%. After thawing, the cell viability tested by trypan blue exclusion is higher than 70%. The thawed cells are centrifuged and resuspended with StemSpan medium before being aliquoted for immediate culture. Cells are plated at 10^4 cells/mL in a 384 well plate (Greiner Bio-One, Monroe, N.C.) with 50 μL of medium per well for 7 days. Every 7 days the cells are transferred to larger well plates and fresh medium is added to keep the cell density between 10^4 and 5×10^5 cells/mL. Cells were cultured at 37° C. in 5% CO2. For transplantation, cells were cultured in 75 cm^2 flasks before the cells were transplanted into mice. At a concentration of 1 micromolar, 4-(2-(2-(benzo[b]thiophen-3-yl)-9-isopropyl-9H-purin-6-ylamino)ethyl)phenol (compound 1, table 1; example 1), 4-(2-(2-(benzo[b]thiophen-3-yl)-9-sec-butyl-9H-purin-6-ylamino)ethyl)phenol (compound 2, table 1), and N-(2-(1H-indol-3-yl)ethyl)-2-(benzo[b]thiophen-3-yl)-9-isopropyl-9H-purin-6-amine (compound 9, table 1) each gives rise to a greater than 10-fold increase in the number of CD34^+ CD45RA^− cells derived from 1000 mPB CD34^+ HSCs after 21 days compared to vehicle. Compounds of the invention were assayed in a dose response format (1 nM to 10 μM) to determine the effective concentration that produced the desired effect in 50% of the cells (EC50).

[2] = tested on: mPB-derived CD34+ cells; assay: Genome-wide transcriptional profiling; type: cell-based, human; conditions: 24 hours
Excerpt: The two genes that were the most highly repressed by treatment with Example 1 (cytochrome P450 1B1 [CYP1B1] and the aryl hydrocarbon receptor repressor [AHRR]) are transcriptionally regulated by the aryl hydrocarbon receptor (AHR). Therefore, compounds of the invention could be acting as an antagonist of AHR signaling.

[3] = Water uptake by thermogravimetry after exposure to relative humidity; type: physicochemical; conditions: 80% rh during 24 hours
Protocol: Mesylate salt: 4-(2-(2-(benzo[b]thiophen-3-yl)-9-isopropyl-9H-purin-6-ylamino)ethyl)phenol free base (0.60 g; 1.40 mmoles) are dissolved in 12 ml acetone at 50° C. Methanesulfonic acid (0.137 g; 1.40 mmoles) is added drop wise. The crystallization takes place rapidly. The white suspension is allowed to cool over about 30 minutes with cooling to room temperature. The slurry is stirred for 18 hours at room temperature and filtered. The solid is washed with acetone (6 ml) in three portions and dried first for about 3 hours at 50° C./ca. 10 mbar and then for about 16 hours at 80° C./ca. 10 mbar. […] The water uptake was estimated by thermogravimetry after exposure to relative humidity (80% rh) during 24 hours. A water uptake of 0.4% was observed.

[4] = tested on: mPB-derived CD34+ cell; assay: 7 day culture with AHR antagonists, expansion of CD34+ cells; type: cell-based, human; conditions: 7 days
Protocol: To further explore the role of AHR signaling in HSCs two other AHR antagonists (alpha-naphthoflavone and CH-223191) were tested. Both compounds lead to dose dependent increases in the number of CD34^+ cells when cultured with mPB-derived CD34^+ cell for 7 days: inclusion of 1 μM CH223191 afforded a 2.2-fold expansion of CD34^+ cells; 0.75 μM α-naphthoflavone afforded a 1.9-fold expansion of CD34^+ cells while 0.75 μM Example 1 afforded a 3.4-fold expansion of total CD34^+ cells. […] Forty-eight hours following transduction, CD34+GFP^+ cells were purified by cell sorting and the levels of AHR were determined by qPCR. Both AHR targeting shRNAs led to decreases in AHR expression following transduction (81% with sh111 and 51% with sh242). These decreases were not seen in cells lacking GFP or in cells transduced with control virus.

[5] = tested on: CYP1B1 mRNA in mPB-derived CD34+ cells; assay: TCDD-mediated CYP1B1 mRNA expression by qPCR; type: cell-based, human; conditions: 3 nM; vehicle 0.01% toluene
Protocol: Further, the ability of Example 1 to block 2,3,7,8-tetrachlorodibenzo-p-dioxin (TCDD, dioxin)-mediated CYP1B1 mRNA expression by qPCR in mPB-derived CD34^+ cells was determined. Treatment with TCDD (3 nM) caused a 4.5-fold increase in the level of CYP1B1 mRNA compared with the vehicle control (0.01% toluene). […] To determine the effects of Example 1 in AHR transcription the ability of Example 1 to inhibit a dioxin-induced AHR dependent luciferase reporter gene assay was tested.

Cc1n[nH]c(C)c1CCCNc1nc(-c2csc3ccccc23)nc2c1ncn2C(C)C [2-(benzo[b]thiophen-3-yl)-N-(3-(3,5-dimethyl-1H-pyrazol-4-yl)propyl)-9-isopropyl-9H-purin-6-amine]
activity relative to example 1 (less active) [1]: ~20 fold
down-regulation of 5 genes (most repressed: CYP1B1, AHRR) ([2]; 1 μM): none were significantly affected
up-regulation of 5 genes of >50,000 probe sets [2]: induced to some degree

CC(C)n1cnc2c(NCCc3ccc(O)cc3)nc(-c3csc4ccccc34)nc21 [Besylate salt, 4-(2-(2-(benzo[b]thiophen-3-yl)-9-isopropyl-9H-purin-6-ylamino)ethyl)phenol]
water uptake [3]: about 0.05%

Cc1ccccc1N=Nc1ccc(NC(=O)c2ccnn2C)c(C)c1 [CH223191, 2-methyl-2H-pyrazole-3-carboxylic acid (2-methyl-4-o-tolylazophenyl)amide]
expansion of CD34+ cells ([4]; 1 μM): 2.2 fold

CC(C)n1cnc2c(NCCc3ccc(O)cc3)nc(-c3csc4ccccc34)nc21 [Esylate salt, 4-(2-(2-(benzo[b]thiophen-3-yl)-9-isopropyl-9H-purin-6-ylamino)ethyl)phenol]
water uptake [3]: 0.05%

CC(C)n1ccc2c(NCCc3ccc(O)cc3)nc(-c3csc4ccccc34)nc21 [Example 198]
EC50 [1]: 1100 nM

CC(C)n1cnc2c(NCCc3cnc4[nH]ccc4c3)nc(-c3cccnc3)nc21 [Example 199]
EC50 [1]: 1600 nM

Cc1cc(CCNc2nc(-c3cncc(F)c3)nc3c2ncn3C(C)CO)ccc1O (centres unmarked) [Example 200]
EC50 [1]: 1 nM

CC(C)n1cnc2c(NCCc3c[nH]c4ccc(OC(=O)CCCCCNC(=O)CCCC[C@@H]5SC[C@@H]6NC(=O)N[C@@H]65)cc34)nc(-c3csc4ccccc34)nc21 [Example 210, 3-(2-(2-(benzo[b]thiophen-3-yl)-9-isopropyl-9H-purin-6-ylamino)ethyl)-1H-indol-5-yl 6-(5-((3aS,4S,6aR)-2-oxohexahydro-1H-thieno[3,4-d]imidazol-4-yl)pentanamido)hexanoate]
EC50 [1]: 2100 nM

CC(C)n1cnc2c(NCCc3ccc(O)cc3)nc(-c3csc4ccccc34)nc21 [Hemi-fumarate salt, 4-(2-(2-(benzo[b]thiophen-3-yl)-9-isopropyl-9H-purin-6-ylamino)ethyl)phenol]
water uptake [3]: 0.3%

CC(C)n1cnc2c(NCCc3ccc(O)cc3)nc(-c3csc4ccccc34)nc21 [Hydrobromide salt, 4-(2-(2-(benzo[b]thiophen-3-yl)-9-isopropyl-9H-purin-6-ylamino)ethyl)phenol]
water uptake [3]: No water uptake

CC(C)n1cnc2c(NCCc3ccc(O)cc3)nc(-c3csc4ccccc34)nc21 [Hydrochloride salt, 4-(2-(2-(benzo[b]thiophen-3-yl)-9-isopropyl-9H-purin-6-ylamino)ethyl)phenol]
water uptake [3]: 0.3%

CC(C)n1cnc2c(NCCc3ccc(O)cc3)nc(-c3csc4ccccc34)nc21 [Mesylate salt, 4-(2-(2-(benzo[b]thiophen-3-yl)-9-isopropyl-9H-purin-6-ylamino)ethyl)phenol]
water uptake [3]: 0.4%

CC(C)n1cnc2c(NCCc3ccc(O)cc3)nc(-c3csc4ccccc34)nc21 [Napadisylate salt, 4-(2-(2-(benzo[b]thiophen-3-yl)-9-isopropyl-9H-purin-6-ylamino)ethyl)phenol]
water uptake [3]: less than 0.05%

CC(C)n1cnc2c(NCCc3ccc(O)cc3)nc(-c3csc4ccccc34)nc21 [Orotate salt, 4-(2-(2-(benzo[b]thiophen-3-yl)-9-isopropyl-9H-purin-6-ylamino)ethyl)phenol]
water uptake [3]: 1.7%

CC(C)n1cnc2c(NCCc3ccc(O)cc3)nc(-c3csc4ccccc34)nc21 [Sulfate salt, 4-(2-(2-(benzo[b]thiophen-3-yl)-9-isopropyl-9H-purin-6-ylamino)ethyl)phenol]
water uptake [3]: 0.2%

Clc1cc2c(cc1Cl)Oc1cc(Cl)c(Cl)cc1O2 [TCDD, 2,3,7,8-tetrachlorodibenzo-p-dioxin]
increase in the level of CYP1B1 mRNA compared with vehicle control [5]: 4.5 fold

CC(C)n1cnc2c(NCCc3ccc(O)cc3)nc(-c3csc4ccccc34)nc21 [Tosylate salt, 4-(2-(2-(benzo[b]thiophen-3-yl)-9-isopropyl-9H-purin-6-ylamino)ethyl)phenol]
water uptake [3]: 0.4%

O=c1cc(-c2ccccc2)oc2c1ccc1ccccc12 [α-naphthoflavone, alpha-naphthoflavone]
expansion of CD34+ cells ([4]; 0.75 μM): 1.9 fold
